We go through 5 molecules from patent US20090149540A1, “Compositions and Methods for Attenuating Mitochondria-Mediated Cell Injury” (priority 2005, published 2009).

The conditions of series [1]: radioactive tracer studies in whole animals; cited from earlier work.
Series [2] concerns entire mitochondrial protein extract. Kind of series: Biotin-switch analysis of mitochondrial protein S-nitrosation. The note with it: for S-nitrosation of mitochondrial protein, comparison of NO* donors: entire mitochondrial protein extract. It is filed as biochemical, rat. On the procedure:
(§1) Rat heart mitochondria were isolated using differential centrifugation (Tompkins, et al. (2005) Biochim. Biophys. Acta PMID: 16278076). Protein was determined by the Folin-phenol method (Lowry, et al. (1951) J. Bio. Chem. 193:265-75) against a standard curve constructed using bovine serum albumin. Mitochondrial incubations and all subsequent steps were performed in the dark. One mg of mitochondrial protein was suspended in 1 mL of mitochondrial respiration buffer (Tompkins, et al. (2005) supra) containing respiratory substrates glutamate (5 mM), malate (2.5 mM) and succinate (5 mM). […] Samples were centrifuged (5 minutes, 14,000×g), and supernatants removed. The pellets were then resuspended in 1 mL of respiration buffer, and centrifuged again. Pellets were frozen in liquid N2 for subsequent analysis. For ONOO^− treatments, 4 μL of 25 mM ONOO^− stock (100 μM final concentration) was added the cap of the reaction tube, the cap quickly closed and the tube shaken immediately. The process was then repeated twice at 30 second intervals, for a total of 3 additions. Mitochondria were then pelleted, washed, and frozen as for S-nitrosoglutathione samples. Complex I activity was assayed as the rotenone-sensitive oxidation of NADH, at 340 nm in the presence of coenzyme Q1 (Borutaite, et al. (2000) supra). Complex IV was assayed by monitoring the cyanide-sensitive first-order oxidation of reduced cytochrome c, at 550 nm according to established methods (Cleeter, et al. (1994) supra).
For biotin-switch analysis, intact mitochondrial pellets (1 mg protein solubilized in extraction buffer) or chromatography column fractions were analyzed in accordance with known methods (Jaffrey & Snyder (2001) supra). Samples were separated in duplicate on non-reducing SDS-PAGE gels; half the gel was stained with COOMASSIE® blue, and the other half blotted and probed with streptavidin-HRP and ECL™ detection (GE biosciences) Blots and stained gels were aligned, and S-nitrosated proteins excised, trypsinized, and identified by peptide mass fingerprinting. Mass spectra (MALDI-TOF) were analyzed using the MASCOT™ algorithm available on the world-wide web at matrixscience.com.

For series [3], the system named is isolated adult rat cardiomyocytes. Kind of series: Cardiomyocyte model of ischemia-reperfusion injury, cell viability by Trypan blue exclusion. It is filed as cell-based. The note with it: 10 μM or 20 μM; 1 hour ischemia, 30 minutes reoxygenation. On the procedure: Isolated adult rat cardiomyocytes were subjected to 1 hour ischemia (anoxic, glucose free medium, pH 6.5) followed by 30 minutes reoxygenation (labeled “HR”). Cell viability was assayed by Trypan blue exclusion. […] All data are means±SEM, N>3.
Adult rat cardiomyocytes were prepared by collagenase perfusion according to standard methods (Dai, et al. (2001) supra), yielding ˜4×10^6 cells per heart, >80% rod-shaped and viable. Incubations were in a shaking water bath at 37° C., each utilizing 5×10^5 cells in 5 mL of the KH buffers described below. For the control, cells were incubated for 2 hours in oxygenated KH buffer (95/5 O2/CO2). For ischemia-reperfusion treatment, cells were subjected to 30 minutes in oxygenated KH buffer, 1 hour in “ischemic” KH buffer (95/5 N2/CO2, pH 6.5, no glucose), and 30 minutes in oxygenated KH buffer. For the ischemia-reperfusion injury and test compound group of cells, ischemia-reperfusion injury was carried out as described above with test compound present during the 30 minute equilibration prior to ischemia-reperfusion and absent during ischemia. […] At the end of each protocol, cell viability was assayed (Trypan blue), and mitochondrial function determined (measurement of ΔΨm with the fluorescent probe TMRE, respiration with an O2 electrode, and S-nitrosothiol content by chemiluminescence and biotin-switch.

A further series concerns isolated mitochondria. The series can be described thus: Chemiluminescent NO analysis of total S-nitrosothiol in isolated mitochondria. Format: biochemical, rat. On the procedure:
At concentrations above 250 μM, secondary reactions such as free S-nitrosothiol or NO2^− formation were observed.
as §1
Chemiluminescent analysis of S-nitrosothiol content was performed on samples originating from blue-native gels, intact mitochondria and SUPEROSE™ 6 chromatography fractions, according to known methodologies (Yang, et al. (2003) Free Radic. Res. 37:1-10). […] Each sample was run in duplicate and quantified using a standard curve created with known concentrations of NaNO2.

For the next series, the target named is T1, mitochondrial complex I (Rattus norvegicus, UniProt Q66HF1).
T1 construct: Rat heart mitochondria were isolated using differential centrifugation; from tissue; host or cells: rat heart mitochondria (male Sprague-Dawley rats)
T1 sequence (Q66HF1 24-727, one chain of several): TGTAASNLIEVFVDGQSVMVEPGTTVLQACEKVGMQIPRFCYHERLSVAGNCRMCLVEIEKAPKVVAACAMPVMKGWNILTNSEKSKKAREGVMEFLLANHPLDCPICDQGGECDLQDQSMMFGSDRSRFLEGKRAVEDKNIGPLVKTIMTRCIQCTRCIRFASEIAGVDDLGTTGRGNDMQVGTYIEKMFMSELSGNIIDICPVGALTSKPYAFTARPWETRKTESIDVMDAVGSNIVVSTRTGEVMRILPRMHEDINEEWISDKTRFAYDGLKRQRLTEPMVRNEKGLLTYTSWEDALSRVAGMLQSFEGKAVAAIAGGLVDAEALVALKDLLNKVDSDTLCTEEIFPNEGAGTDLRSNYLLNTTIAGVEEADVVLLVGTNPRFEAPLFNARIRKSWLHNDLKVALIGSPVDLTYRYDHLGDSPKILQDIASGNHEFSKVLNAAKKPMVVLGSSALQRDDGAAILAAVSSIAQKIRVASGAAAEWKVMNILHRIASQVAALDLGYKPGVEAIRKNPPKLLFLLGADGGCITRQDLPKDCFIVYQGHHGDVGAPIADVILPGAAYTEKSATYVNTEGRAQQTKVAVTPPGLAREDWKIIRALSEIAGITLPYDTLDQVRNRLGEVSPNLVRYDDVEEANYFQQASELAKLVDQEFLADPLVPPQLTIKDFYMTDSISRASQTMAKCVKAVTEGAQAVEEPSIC
The series can be described thus: Complex I activity (rotenone-sensitive NADH/Co-Q1 oxidation/reduction) in treated mitochondria. Format: biochemical. The note with it: S-nitrosoglutathione treatment of mitochondria; exposure to light. The source says: Assuming heart mitochondria contain ˜50 pmol complex I per mg protein (Schagger & Pfeiffer (2001) J. Biol. Chem. 276:37861-37867), it was observed that S-nitrosation plateaud at a ˜7:1 mol/mol ratio (i.e., 7 mols S-nitrosothiol per mol complex I), while maximum complex I inhibition was ˜20-25%. This apparent mis-match between the stoichiometry of S-nitrosation (7:1) and the degree of inhibition (25%) may reflect S-nitrosation of complex I on multiple subunits. Alternatively, since the spectrophotometric complex I activity assay was performed at 340 nm, close to the absorption maxima of S-nitrosothiols (335 nm), S-nitrosothiols within complex I may have been destroyed during the assay, leading to underestimation of inhibition by S-nitrosation.
Rat heart mitochondria were isolated using differential centrifugation (Tompkins, et al. (2005) Biochim. Biophys. Acta PMID: 16278076). Protein was determined by the Folin-phenol method (Lowry, et al. (1951) J. Bio. Chem. 193:265-75) against a standard curve constructed using bovine serum albumin. Mitochondrial incubations and all subsequent steps were performed in the dark. One mg of mitochondrial protein was suspended in 1 mL of mitochondrial respiration buffer (Tompkins, et al. (2005) supra) containing respiratory substrates glutamate (5 mM), malate (2.5 mM) and succinate (5 mM). […]

SMILES strings stand for the structures.

With `CC(S)C(=O)NCC(=O)O` (stereo not drawn) [2-Mercaptopropionylglycine], the “cell entry and mitochondrial accumulation” value in series [1] is “readily enters cells and accumulates in mitochondria”.
Regarding `NCCN(CCN)/[N+]([O-])=N/O` [DETA-NONOate], the “S-nitrosation of mitochondrial protein, comparison of NO* donors” value (from here on “S-nitrosation … of NO* donors”) in series [2] is recorded as “S-nitrosoglutathione resulted in far more S-nitrosation than DETA-NONOate”.
As to `O=NOO` [ONOO^−, peroxynitrite], the “S-nitrosation … of NO* donors” value in series [2] is “S-nitrosoglutathione resulted in far more S-nitrosation than DETA-NONOate or ONOO^−”.
Turning to `CC(SN=O)C(=O)NCC(=O)O` (stereo not drawn) [S-nitroso-2-mercaptopropylglycine], in series [3], the “protection of cardiomyocyte viability from ischemia-reperfusion injury” value is “significant protection of cardiomyocytes from ischemia-reperfusion injury”. The “S-nitrosation of mitochondrial proteins compared with S-nitrosoglutathione” value in series [2] (same concentrations, 10-100 μM) is recorded as “much greater degree of S-nitrosation of mitochondrial proteins than did S-nitrosoglutathione”.
For `N[C@@H](CCC(=O)N[C@@H](CSN=O)C(=O)NCC(=O)O)C(=O)O` [S-nitrosoglutathione], the “concentration at which total S-nitrosothiol (free plus protein-bound) approaches saturation” value with isolated mitochondria (10 μM to 1 mM) was ~300 µM. In addition, the total S-nitrosothiol in the series with isolated mitochondria (100 μM treatment) was ~1700 pmol/mg mitochondrial protein. For the same molecule, the “concentrations at which secondary reactions such as free S-nitrosothiol or NO2− formation were observed” value in the series with isolated mitochondria (isolated mitochondria) is recorded as “above 250 μM”. The “complex I inhibition and its reversibility” value at mitochondrial complex I is recorded as “complex I inhibition that was reversible by exposure of mitochondria to light”. Also, in series [2] (biotin-switch and chemiluminescent data together), the “concentration at which formation of protein bound S-nitrosothiol saturates” value was ~250 µM. For the same molecule, the “concentration at which plateau of mitochondrial protein S-nitrosation is reached” value in series [2] (dose response over the range 50-250 μM) was ~200 µM. Also, in series [2], the “S-nitrosation … of NO* donors” value was “far more S-nitrosation than DETA-NONOate or ONOO^−”.
